Measurements reported in US8597875B2, “Method for diagnosing liver toxicity with sex specific biomarkers” (BASF SE, priority 2008, dated 2013).

Legend:
male rats = test: Plasma metabolite profiling (GC-MS/LC-MS) for liver toxicity markers, 28-day gavage study, male rats; format: in vivo, rat; details: Table 3, male rats
Description: (§1) A group of each 5 male and female rats was dosed once daily with the indicated compounds (see tables below) at 10 and 100 mg/kg body weight per gavage over 28 days. Additional groups of each 5 male and female animals served as controls. Before starting the treatment period, animals, which were 62-64 days old when supplied, were acclimatized to the housing and environmental conditions for 7 days. All animals of the animal population were kept under the same constant temperature (20-24±3° C.) and the same constant humidity (30-70%). Each animal of the animal population was kept in a separate cage. The animals of the animal population are fed ad libitum. The food to be used was be essentially free of chemical or microbial contaminants. Drinking water was also offered ad libitum. Accordingly, the water was be free of chemical and microbial contaminants as laid down in the European Drinking Water Directive 98/83/EG. The illumination period was 12 hours light followed by 12 hours darkness (12 hours light, from 6:00 to 18:00, and 12 hours darkness, from 18:00 to 6:00).
(§2) In the morning of day 7, 14, and 28, blood was taken from the retroorbital venous plexus from fasted anaesthetized animals. From each animal, 1 ml of blood was collected with EDTA as anticoagulant. The samples were be centrifuged for generation of plasma. All plasma samples were covered with a N2 atmosphere and then stored at −80° C. until analysis.
(§3) For mass spectrometry-based metabolite profiling analyses plasma samples were extracted and a polar and a non-polar fraction was obtained. For GC-MS analysis, the non-polar fraction was treated with methanol under acidic conditions to yield the fatty acid methyl esters. Both fractions were further derivatised with O-methyl-hydroxyamine hydrochloride and pyridine to convert Oxo-groups to O-methyloximes and subsequently with a silylating agent before analysis. In LC-MS analysis, both fractions were reconstituted in appropriate solvent mixtures. HPLC was performed by gradient elution on reversed phase separation columns. For mass spectrometric detection metanomics proprietary technology was applied which allows target and high sensitivity MRM (Multiple Reaction Monitoring) profiling in parallel to a full screen analysis.
(§4) Following comprehensive analytical validation steps, the data for each analyte were normalized against data from pool samples. These samples were run in parallel through the whole process to account for process variability. The significance of treatment group values specific for sex, dose group and metabolite was determined by comparing means of the treated groups to the means of the respective untreated control groups using WELCH-test. Normalized treatment group values and their significance were fed into a database for further statistics and data mining processes.
(§5) The changes of the group of plasma metabolites being indicative for liver toxicity after treatment of the rats are shown in the following tables: […]

female rats = test: Plasma metabolite profiling (GC-MS/LC-MS) for liver toxicity markers, 28-day gavage study, female rats; format: in vivo, rat; details: for Glycerol-3-Phosphate, polar fraction, change of plasma metabolite / Glucose, change of plasma metabolite / Cholesterol, change of plasma metabolite: female rats
Description: as §1, §2, §3, §4, §5

[1] = Table 4, female rats, fh7 (day 7)
[2] = Table 4, female rats, fh14 (day 14)
[3] = Table 4, female rats, fh28 (day 28)

With `CC(=O)Nc1ccc(O)cc1` [N-Acetyl-p-Aminophenol] the “4-Hydroxyphenylpyruvic acid, change of plasma metabolite” value (male rats; mh7 (day 7)) was 3.04, the “18:1 Lyso PC, change of plasma metabolite” value (male rats; mh7 (day 7)) was 1.02 and the “Glycerol-3-Phosphate, polar fraction, change of plasma metabolite” value (male rats; mh7 (day 7)) was 1.41. For the same molecule, the “alpha-Tocopherol, change of plasma metabolite” value (male rats; mh7 (day 7)) was 1.21, the “4-Hydroxyphenylpyruvic acid, change of plasma metabolite” value (male rats; mh14 (day 14)) was 4.89 and the “4-Hydroxysphinganine, change of plasma metabolite” value (male rats; mh14 (day 14)) was 1.61. For the same molecule, the “18:1 Lyso PC, change of plasma metabolite” value (male rats; mh14 (day 14)) was 1.16, the “Glycerol-3-Phosphate, polar fraction, change of plasma metabolite” value (male rats; mh14 (day 14)) was 1.54 and the “Phosphatidylcholine No 01, change of plasma metabolite” value (“Phosphatidylcholine No 01, change” for short) (male rats; mh14 (day 14)) was 1.21. For the same molecule, the “Behenic acid (C22:0), change of plasma metabolite” value (female rats; [1]) was 1.11, the “Coenzyme Q9, change of plasma metabolite” value (female rats; [1]) was 2.21 and the “Eicosatrienoic acid No 01, change of plasma metabolite” value (“Eicosatrienoic acid No 01, change” below) (female rats; [1]) was 1.15. For the same molecule, the “Glycerol, lipid fraction, change of plasma metabolite” value (shortened to “Glycerol, lipid fraction, change”) (female rats; [1]) was 1.54, the “Glycerolphosphate, lipid fraction, change of plasma metabolite” value (female rats; [1]) was 1.13 and the “Heptadecanoic acid (C17:0), change of plasma metabolite” value (“Heptadecanoic acid (C17:0), change” below) (female rats; [1]) was 1.31. For the same molecule, the “Linoleic acid (C18:cis[9,12]2), change of plasma metabolite” value (“Linoleic acid (C18:cis[9,12]2), change” below) (female rats; [1]) was 1.43, the “Nervonic acid (C24:1), change of plasma metabolite” value (female rats; [1]) was 1.19 and the “Palmitic acid (C16:0), change of plasma metabolite” value (“Palmitic acid (C16:0), change” below) (female rats; [1]) was 1.16. The “Phosphatidylcholine No 01, change” value (female rats; [1]) was 1.30, the “Sphingolipids (5-Methoxysphingosine), change of plasma metabolite” value (female rats; [1]) was 1.31 and the “Sphingolipids (erythro-Sphingosine), change of plasma metabolite” value (female rats; [1]) was 1.11. For the same molecule, the “14-Methylhexadecanoic acid, change of plasma metabolite” value (female rats; [2]) was 1.20, the “Behenic acid (C22:0), change of plasma metabolite” value (female rats; [2]) was 1.39 and the “Coenzyme Q9, change of plasma metabolite” value (female rats; [2]) was 1.39. For the same molecule, the “DAG (C18:1, C18:2), change of plasma metabolite” value (female rats; [2]) was 1.63, the “Eicosatrienoic acid No 01, change” value (female rats; [2]) was 1.91 and the “Glycerol, lipid fraction, change” value (female rats; [2]) was 1.56. The “Heptadecanoic acid (C17:0), change” value (female rats; [2]) was 1.34, the “Linoleic acid (C18:cis[9,12]2), change” value (female rats; [2]) was 1.82 and the “Nervonic acid (C24:1), change of plasma metabolite” value (female rats; [2]) was 1.35. The “Palmitic acid (C16:0), change” value (female rats; [2]) was 1.50, the “Phosphatidylcholine No 01, change” value (female rats; [2]) was 1.34 and the “Sphingolipids (5-Methoxysphingosine), change of plasma metabolite” value (female rats; [2]) was 1.41. The “Sphingolipids (erythro-Sphingosine), change of plasma metabolite” value (female rats; [2]) was 1.29, the “TAG No 01, change of plasma metabolite” value (female rats; [2]) was 2.93 and the “14-Methylhexadecanoic acid, change of plasma metabolite” value (female rats; [3]) was 1.68. The “Coenzyme Q9, change of plasma metabolite” value (female rats; [3]) was 1.19, the “DAG (C18:1, C18:2), change of plasma metabolite” value (female rats; [3]) was 1.86 and the “Eicosanoic acid (C20:0), change of plasma metabolite” value (female rats; [3]) was 1.73. For the same molecule, the “Eicosatrienoic acid No 01, change” value (female rats; [3]) was 2.08, the “Glycerol, lipid fraction, change” value (female rats; [3]) was 2.04 and the “Glycerolphosphate, lipid fraction, change of plasma metabolite” value (female rats; [3]) was 1.82. For the same molecule, the “Heptadecanoic acid (C17:0), change” value (female rats; [3]) was 1.64, the “Linoleic acid (C18:cis[9,12]2), change” value (female rats; [3]) was 2.68 and the “Palmitic acid (C16:0), change” value (female rats; [3]) was 2.03. For the same molecule, the “TAG No 01, change of plasma metabolite” value (female rats; [3]) was 3.85, the “Glycerol-3-Phosphate, polar fraction, change of plasma metabolite” value (female rats; Table 4, first listing (r8), fh7 (day 7)) was 1.68 and the “Glycerol-3-Phosphate, polar fraction, change of plasma metabolite” value (female rats; Table 4, first listing (r8), fh14 (day 14)) was 1.18. For the same molecule, the “Glucose, change of plasma metabolite” value (female rats; Table 4, first listing (r10), fh7 (day 7)) was 1.25, the “Glucose, change of plasma metabolite” value (female rats; Table 4, first listing (r10), fh28 (day 28)) was 1.17 and the “Cholesterol, change of plasma metabolite” value (female rats; Table 4, first listing (r14), fh28 (day 28)) was 1.41. The “Cholesterol, change of plasma metabolite” value (female rats; Table 4, second listing (r26), fh7 (day 7)) was 1.21, the “Cholesterol, change of plasma metabolite” value (female rats; Table 4, second listing (r26), fh14 (day 14)) was 1.42 and the “Cholesterol, change of plasma metabolite” value (female rats; Table 4, second listing (r26), fh28 (day 28)) was 1.74. For the same molecule, the “Glucose, change of plasma metabolite” value (female rats; Table 4, second listing (r27), fh28 (day 28)) was 1.04, the “Glycerol-3-Phosphate, polar fraction, change of plasma metabolite” value (female rats; Table 4, second listing (r28), fh7 (day 7)) was 1.93 and the “Glycerol-3-Phosphate, polar fraction, change of plasma metabolite” value (female rats; Table 4, second listing (r28), fh14 (day 14)) was 1.35. The “Glycerol-3-Phosphate, polar fraction, change of plasma metabolite” value (female rats; Table 4, second listing (r28), fh28 (day 28)) was 1.20.
